Experimental data taken from patent publication US11622970B2, “BCL-2 inhibitors and their use as pharmaceuticals” (PRELUDE THERAPEUTICS INCORPORATED, priority 2020, dated 2023).

The molecules below were run against BCL-2 recombinant protein (Homo sapiens, UniProt P10415) (assay: Cell free Bcl-2:Bak affinity assay (Bcl-2 Bak), HTRF competition of FAM-Bak peptide). Settings: 1 μM compound, 4 nM BCL-2 recombinant protein, 100 nM FAM-Bak, read-out: potency (% inhibition at 1 μM).
Assay type: binding
Outline: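 Compounds in 10-point 3-fold dilution preincubated 10 min at RT with 4 nM GST-BCL-2 (20 mM K phosphate pH 7.5, 50 mM NaCl, 1 mM EDTA, 0.005% Triton X-100), then 100 nM FAM-Bak 10 min, anti-GST-Tb added, 60 min RT dark. HTRF read; % inhibition vs DMSO and positive control, IC50 from curve fit.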

Sequence of BCL-2 recombinant protein (P10415 whole entry): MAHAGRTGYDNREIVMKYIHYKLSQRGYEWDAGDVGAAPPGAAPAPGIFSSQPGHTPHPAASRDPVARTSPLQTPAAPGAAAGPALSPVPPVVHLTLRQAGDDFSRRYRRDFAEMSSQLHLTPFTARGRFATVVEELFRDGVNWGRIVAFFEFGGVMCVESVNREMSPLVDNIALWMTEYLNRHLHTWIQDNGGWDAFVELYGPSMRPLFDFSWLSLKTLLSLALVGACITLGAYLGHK

Which inhibition at 1 µM does the source give for `CNc1c([N+](=O)[O-])cc(C(=O)NS(=O)(=O)c2ccc(N3CCN(CC4=C(c5ccc(Cl)cc5)CC(C)(C)CC4)CC3)cc2)c(Cl)c1C` [Example 54, 2-chloro-N-[4-[4-[[2-(4-chlorophenyl)-4,4-dimethylcyclohexen-1-yl]methyl]piperazin-1-yl]phenyl]sulfonyl-4-(methylamino)-3-methyl-5-nitrobenzamide] here?
Its inhibition at 1 µM is 50 to 90%.

How did the inhibition at 1 µM turn out when `COc1cc(-c2nc(C(=O)NS(=O)(=O)c3ccc(N4CCN(CC5=C(c6ccc(Cl)cc6)CC(C)(C)CC5)CC4)cc3)ccc2F)ccn1` [Example 55, N-[4-[4-[[2-(4-Chlorophenyl)-4,4-dimethylcyclohexen-1-yl]methyl]piperazin-1-yl]phenyl]sulfonyl-5-fluoro-6-(2-methoxypyridin-4-yl)pyridine-2-carboxamide] was run?
Its inhibition at 1 µM is 50 to 90%.

How did the inhibition at 1 µM turn out when `Cn1ccc(-c2nc(C(=O)NS(=O)(=O)c3ccc(N4CCN(CC5=C(c6ccc(Cl)cc6)CC(C)(C)CC5)CC4)cc3)ccc2F)cc1=O` [Example 56, N-[4-[4-[[2-(4-Chlorophenyl)-4,4-dimethylcyclohexen-1-yl]methyl]piperazin-1-yl]phenyl]sulfonyl-3-fluoro-1′-methyl-2′-oxo-1′,2′-dihydro-[2,4′-bipyridine]-6-carboxamide] was run?
Its inhibition at 1 µM is 50 to 90%.

For `COc1ncc(-c2nc(C(=O)NS(=O)(=O)c3ccc(N4CCN(CC5=C(c6ccc(Cl)cc6)CC(C)(C)CC5)CC4)cc3)ccc2F)cn1` [Example 57, N-[4-[4-[[2-(4-Chlorophenyl)-4,4-dimethylcyclohexen-1-yl]methyl]piperazin-1-yl]phenyl]sulfonyl-5-fluoro-6-(2-methoxypyrimidin-5-yl)pyridine-2-carboxamide], which inhibition at 1 µM is on record?
Its inhibition at 1 µM is 50 to 90%.

`Cn1cc(-c2nc(C(=O)NS(=O)(=O)c3ccc(N4CCN(CC5=C(c6ccc(Cl)cc6)CC(C)(C)CC5)CC4)cc3)ccc2F)ccc1=O` [Example 58, N-[4-[4-[[2-(4-Chlorophenyl)-4,4-dimethylcyclohexen-1-yl]methyl]piperazin-1-yl]phenyl]sulfonyl-3-fluoro-1′-methyl-6′-oxo-1′,6′-dihydro-[2,3′-bipyridine]-6-carboxamide] was tested. Which inhibition at 1 µM did it give?
Its inhibition at 1 µM is 50 to 90%.

With `CC1(C)CCC(CN2CCN(c3ccc(S(=O)(=O)NC(=O)c4ccc(F)c(-c5cn[nH]c5)n4)cc3)CC2)=C(c2ccc(Cl)cc2)C1` [Example 59, N-[4-[4-[[2-(4-Chlorophenyl)-4,4-dimethylcyclohexen-1-yl]methyl]piperazin-1-yl]phenyl]sulfonyl-5-fluoro-6-(1H-pyrazol-4-yl)pyridine-2-carboxamide] as the molecule, how does the inhibition at 1 µM read?
Its inhibition at 1 µM is 50 to 90%.

How did the inhibition at 1 µM turn out when `Cn1ncc2ccc(-c3nc(C(=O)NS(=O)(=O)c4ccc(N5CCN(CC6=C(c7ccc(Cl)cc7)CC(C)(C)CC6)CC5)cc4)ccc3F)cc21` [Example 60, N-[4-[4-[[2-(4-Chlorophenyl)-4,4-dimethylcyclohexen-1-yl]methyl]piperazin-1-yl]phenyl]sulfonyl-5-fluoro-6-(1-methyl-1H-indazol-6-yl)pyridine-2-carboxamide] was run?
The inhibition at 1 µM was 50 to 90%.

How did the inhibition at 1 µM turn out when `CC1(C)CCC(CN2CCN(c3ccc(S(=O)(=O)NC(=O)c4ccc(F)c(-c5ccncc5)n4)cc3)CC2)=C(c2ccc(Cl)cc2)C1` [Example 61, N-[4-[4-[[2-(4-chlorophenyl)-4,4-dimethyl-cyclohexen-1-yl]methyl]piperazin-1-yl]phenyl]sulfonyl-5-fluoro-6-(4-pyridyl)pyridine-2-carboxamide] was run?
The inhibition at 1 µM was < 50%.

Same assay, conditions: 10-concentration IC50 mode, 4 nM BCL-2 recombinant protein, 100 nM FAM-Bak, read-out: potency (IC50)

How did the IC50 turn out when `COc1cc(-c2nc(C(=O)NS(=O)(=O)c3ccc(N4CCN(CC5=C(c6ccc(Cl)cc6)CC(C)(C)CC5)CC4)cc3Oc3cnc4[nH]ccc4c3)ccc2F)ccn1` [Example 62, N-[4-[4-[[2-(4-Chlorophenyl)-4,4-dimethylcyclohexen-1-yl]methyl]piperazin-1-yl]-2-(1H-pyrrolo[2,3-b]pyridin-5-yloxy)phenyl]sulfonyl-5-fluoro-6-(2-methoxypyridin-4-yl)pyridine-2-carboxamide] was run?
Its IC50 is 100 to 1000 nM.

With `Cn1cc(-c2nc(C(=O)NS(=O)(=O)c3ccc(N4CCN(CC5=C(c6ccc(Cl)cc6)CC(C)(C)CC5)CC4)cc3Oc3cnc4[nH]ccc4c3)ccc2F)cn1` [Example 63, N-[4-[4-[[2-(4-Chlorophenyl)-4,4-dimethylcyclohexen-1-yl]methyl]piperazin-1-yl]-2-(1H-pyrrolo[2,3-b]pyridin-5-yloxy)phenyl]sulfonyl-5-fluoro-6-(1-methylpyrazol-4-yl)pyridine-2-carboxamide] as the molecule, how does the IC50 read?
Its IC50 is 10 to 100 nM.

How did the IC50 turn out when `Cc1cc([N+](=O)[O-])cc(C(=O)NS(=O)(=O)c2ccc(C3=CCN(CC4=C(c5ccc(Cl)cc5)CC(C)(C)CC4)CC3)cc2Oc2cnc3[nH]ccc3c2)n1` [Example 64, N-[4-[1-[[2-(4-Chlorophenyl)-4,4-dimethylcyclohexen-1-yl]methyl]-3,6-dihydro-2H-pyridin-4-yl]-2-(1H-pyrrolo[2,3-b]pyridin-5-yloxy)phenyl]sulfonyl-6-methyl-4-nitropyridine-2-carboxamide] was run?
The IC50 was > 1000 nM.

Which IC50 does the source give for `Cc1cc([N+](=O)[O-])cc(C(=O)NS(=O)(=O)c2ccc(C3=CCN(CC4=C(c5ccc(Cl)cc5)CC(C)(C)CC4)CC3)cc2F)n1` [Example 65, N-[4-[1-[[2-(4-Chlorophenyl)-4,4-dimethylcyclohexen-1-yl]methyl]-3,6-dihydro-2H-pyridin-4-yl]-2-fluorophenyl]sulfonyl-6-methyl-4-nitropyridine-2-carboxamide] here?
Its IC50 is < 10 nM.

With `Cc1cc([N+](=O)[O-])cc(C(=O)NS(=O)(=O)c2ccc(N3CCN(CC4=C(c5ccc(Cl)cc5)CC(C)(C)CC4)CC3)cc2Oc2cnc3[nH]ccc3c2)n1` [Example 66, N-[4-[4-[[2-(4-Chlorophenyl)-4,4-dimethylcyclohexen-1-yl]methyl]piperazin-1-yl]-2-(1H-pyrrolo[2,3-b]pyridin-5-yloxy)phenyl]sulfonyl-6-methyl-4-nitropyridine-2-carboxamide] as the molecule, how does the IC50 read?
The IC50 was 10 to 100 nM.

How did the IC50 turn out when `CC1(C)CCC(CN2CCN(c3ccc(S(=O)(=O)NC(=O)c4ccc(F)c(Br)n4)c(Oc4cnc5[nH]ccc5c4)c3)CC2)=C(c2ccc(Cl)cc2)C1` [Example 67, N-[4-[4-[[2-(4-chlorophenyl)-4,4-dimethylcyclohexen-1-yl]methyl]piperazin-1-yl]-2-(1H-pyrrolo[2,3-b]pyridin-5-yloxy)phenyl]sulfonyl-6-bromo-5-fluoropyridine-2-carboxamide] was run?
The IC50 was 10 to 100 nM.

With `CC1(C)CCC(CN2CCN(c3ccc(S(=O)(=O)NC(=O)c4ccc(Cl)c(Cl)n4)c(Oc4cnc5[nH]ccc5c4)c3)CC2)=C(c2ccc(Cl)cc2)C1` [Example 68, 5,6-Dichloro-N-[4-[4-[[2-(4-chlorophenyl)-4,4-dimethylcyclohexen-1-yl]methyl]piperazin-1-yl]-2-(1H-pyrrolo[2,3-b]pyridin-5-yloxy)phenyl]sulfonylpyridine-2-carboxamide] as the molecule, how does the IC50 read?
The IC50 was 10 to 100 nM.

How did the IC50 turn out when `Cc1nc(C(=O)NS(=O)(=O)c2ccc(N3CCN(CC4=C(c5ccc(Cl)cc5)CC(C)(C)CC4)CC3)cc2Oc2cnc3[nH]ccc3c2)ccc1F` [Example 69, N-[4-[4-[[2-(4-chlorophenyl)-4,4-dimethylcyclohexen-1-yl]methyl]piperazin-1-yl]-2-(1H-pyrrolo[2,3-b]pyridin-5-yloxy)phenyl]sulfonyl-5-fluoro-6-methylpyridine-2-carboxamide] was run?
The IC50 was 10 to 100 nM.

Which IC50 does the source give for `Cc1nc(C(=O)NS(=O)(=O)c2ccc(N3CCN(CC4=C(c5ccc(Cl)cc5)CC(C)(C)CC4)CC3)cc2Oc2cnc3[nH]ccc3c2)ccc1[N+](=O)[O-]` [Example 70, N-[4-[4-[[2-(4-chlorophenyl)-4,4-dimethylcyclohexen-1-yl]methyl]piperazin-1-yl]-2-(1H-pyrrolo[2,3-b]pyridin-5-yloxy)phenyl]sulfonyl-6-methyl-5-nitropyridine-2-carboxamide] here?
Its IC50 is 10 to 100 nM.

For `CC1(C)CCC(CN2CCN(c3ccc(S(=O)(=O)NC(=O)c4ccc(Cl)c(C(F)(F)F)n4)c(Oc4cnc5[nH]ccc5c4)c3)CC2)=C(c2ccc(Cl)cc2)C1` [Example 71, 5-Chloro-N-[4-[4-[[2-(4-chlorophenyl)-4,4-dimethylcyclohexen-1-yl]methyl]piperazin-1-yl]-2-(1H-pyrrolo[2,3-b]pyridin-5-yloxy)phenyl]sulfonyl-6-(trifluoromethyl)pyridine-2-carboxamide], which IC50 is on record?
The IC50 was 100 to 1000 nM.

How did the IC50 turn out when `CC1(C)CCC(CN2CCN(c3ccc(S(=O)(=O)NC(=O)c4ccc([N+](=O)[O-])c(Cl)n4)c(Oc4cnc5[nH]ccc5c4)c3)CC2)=C(c2ccc(Cl)cc2)C1` [Example 72, 6-Chloro-N-[4-[4-[[2-(4-chlorophenyl)-4,4-dimethylcyclohexen-1-yl]methyl]piperazin-1-yl]-2-(1H-pyrrolo[2,3-b]pyridin-5-yloxy)phenyl]sulfonyl-5-nitropyridine-2-carboxamide] was run?
The IC50 was 10 to 100 nM.

`Cc1nc(C(=O)NS(=O)(=O)c2ccc(N3CCN(CC4=C(c5ccc(Cl)cc5)CC(C)(C)CC4)CC3)cc2Oc2cnc3[nH]ccc3c2)ccc1Cl` [Example 73, N-[4-[4-[[2-(4-chlorophenyl)-4,4-dimethylcyclohexen-1-yl]methyl]piperazin-1-yl]-2-(1H-pyrrolo[2,3-b]pyridin-5-yloxy)phenyl]sulfonyl-5-chloro-6-methylpyridine-2-carboxamide] was tested. Which IC50 did it give?
Its IC50 is 10 to 100 nM.

How did the IC50 turn out when `CC1(C)CCC(CN2CCN(c3ccc(S(=O)(=O)NC(=O)c4ccc5c(c4)CCCO5)c(Oc4cnc5[nH]ccc5c4)c3)CC2)=C(c2ccc(Cl)cc2)C1` [Example 74, N-[4-[4-[[2-(4-chlorophenyl)-4,4-dimethylcyclohexen-1-yl]methyl]piperazin-1-yl]-2-(1H-pyrrolo[2,3-b]pyridin-5-yloxy)phenyl]sulfonyl-3,4-dihydro-2H-chromene-6-carboxamide] was run?
Its IC50 is 100 to 1000 nM.

`CC1(C)CCC(CN2CCN(c3ccc(S(=O)(=O)NC(=O)c4cnc5sccc5c4)c(Oc4cnc5[nH]ccc5c4)c3)CC2)=C(c2ccc(Cl)cc2)C1` [Example 75, N-((2-((1H-pyrrolo[2,3-b]pyridin-5-yl)oxy)-4-(4-[[2-(4-Chlorophenyl)-4,4-dimethylcyclohexen-1-yl]methyl]piperazin-1-yl]phenyl)sulfonyl)thieno[2,3-b]pyridine-5-carboxamide] was tested. Which IC50 did it give?
Its IC50 is 100 to 1000 nM.
